# From US20230085307A1, “PYRIDAZINONE COMPOUND AND HERBICIDE” (NISSAN CHEMICAL CORPORATION, priority 2019, published 2023)
# How the values were obtained:
# Details in all cases: amount of applied herbicide 320 g/ha
# barnyard grass [1] = test: Test Example 3: herbicidal effect by foliage application, Wagner pot (Table 18, symbol H); type: in vivo, barnyard grass (Echinochloa crus-galli)
# Outline: (§1)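 Plants were sown in alluvial soil held under 0.1–0.5 cm standing water and grown 14 days in a greenhouse at 25–30 °C. An emulsifiable formulation, water-diluted to the set dose, was then sprayed onto the foliage, and effects were scored three weeks later using previously defined criteria.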
# Chinese sprangletop = test: Test Example 3: herbicidal effect by foliage application, Wagner pot (Table 18, symbol D); type: in vivo, chinese sprangletop (Leptochloa chinensis)
# Outline: as §1
# rice flat sedge = test: Test Example 3: herbicidal effect by foliage application, Wagner pot (Table 18, symbol E); type: in vivo, rice flat sedge (Cyperus iria)
# Outline: as §1
# directly sowed rice = test: Test Example 3: effect on crop by foliage application, Wagner pot (Table 18, symbol b); type: in vivo
# Description: [Test Example 3] Herbicidal Effect Test by Foliage Application After alluvial soil was placed into 1/10000 are of Wagner pot, water was poured and mixed to form a submerged condition having a water depth of 0.1 cm to 0.5 cm. Seeds of barnyard grass, Chinese sprangletop, rice flat sedge, and rice were sowed and the pot was placed in a greenhouse at 25° C. to 30° C. for growth of the plants. After 14-day growth of the plants, the emulsion agent of the compound of the present invention prepared according to Formulation Example 2 was diluted with water so as to achieve a predetermined herbicide amount, and the diluted emulsion agent was uniformly applied to a foliage part with a small-sized spray. Three weeks after the herbicide application, the effect of the herbicide on each plant was evaluated according to the criteria of Test Example 1.
# southern crabgrass = test: Test Example 4: herbicidal effect by soil treatment (Table 19, symbol F); type: in vivo, southern crabgrass (Digitaria ciliaris)
# Outline: (§2)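 Scoring uses the grading scale of an earlier test, three weeks post-application. Treatment consists of spraying a diluted emulsion formulation across the surface of sterilized diluvial soil in which seeds are buried near 1.5 cm deep; boxes are kept in a greenhouse between 25° C. and 30° C.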
# green foxtail = test: Test Example 4: herbicidal effect by soil treatment (Table 19, symbol G); type: in vivo, green foxtail (Setaria viridis)
# Outline: as §2
# barnyard grass [2] = test: Test Example 4: herbicidal effect by soil treatment (Table 19, symbol H); type: in vivo, barnyard grass (Echinochloa crus-galli)
# Outline: as §2
# wild oat = test: Test Example 4: herbicidal effect by soil treatment (Table 19, symbol I); type: in vivo, wild oat (Avena fatua)
# Outline: as §2
# blackgrass = test: Test Example 4: herbicidal effect by soil treatment (Table 19, symbol J); type: in vivo, blackgrass (Alopecurus myosuroides)
# Outline: as §2
# Italian ryegrass = test: Test Example 4: herbicidal effect by soil treatment (Table 19, symbol K); type: in vivo, Italian ryegrass (Lolium multiflorum)
# Outline: as §2
# windgrass = test: Test Example 4: herbicidal effect by soil treatment (Table 19, symbol L); type: in vivo, windgrass (Apera spica-venti)
# Outline: as §2
# velvetleaf = test: Test Example 4: herbicidal effect by soil treatment (Table 19, symbol M); type: in vivo, velvetleaf (Abutilon theophrasti)
# Outline: as §2
# redroot pigweed = test: Test Example 4: herbicidal effect by soil treatment (Table 19, symbol N); type: in vivo, redroot pigweed (Amaranthus retroflexus)
# Outline: as §2
# lambsquarters = test: Test Example 4: herbicidal effect by soil treatment (Table 19, symbol O); type: in vivo, lambsquarters (Chenopodium album)
# Outline: as §2
# chickweed = test: Test Example 4: herbicidal effect by soil treatment (Table 19, symbol P); type: in vivo, common chickweed (Stellaria media)
# Outline: as §2
# persian speedwell = test: Test Example 4: herbicidal effect by soil treatment (Table 19, symbol R); type: in vivo, Persian speedwell (Veronica persica)
# Outline: as §2
# corn = test: Test Example 4: effect on crop by soil treatment (Table 19, symbol c); type: in vivo
# Excerpt: (§3) [Test Example 4] Herbicidal Effect Test by Soil Treatment
# (§4) Sterilized diluvial soil was placed in a plastic box having a length of 21 cm, a width of 13 cm, and a depth of 7 cm. The seeds of each of southern crabgrass, green foxtail, barnyard grass, wild oat, blackgrass, Italian ryegrass, windgrass, velvetleaf, redroot pigweed, lambsquarters, chickweed, false cleavers, persian speedwell, corn, soybean, rice, wheat, beet, and rapeseed were sowed in a spot-like manner and covered with the soil having a thickness of about 1.5 cm. Subsequently, the emulsion agent of the compound of the present invention prepared according to Formulation Example 2 was diluted with water so as to achieve a predetermined herbicide amount, and the diluted emulsion agent was uniformly applied to the surface of the soil with a small-sized spray. The plastic box was placed in a greenhouse at 25° C. to 30° C. for growth of the plants. Three weeks after the herbicide application, the effect of the herbicide on each plant was evaluated according to the criteria of Test Example 1.
# soybean = test: Test Example 4: effect on crop by soil treatment (Table 19, symbol d); type: in vivo
# Excerpt: as §3, §4
# wheat = test: Test Example 4: effect on crop by soil treatment (Table 19, symbol e); type: in vivo
# Excerpt: as §3, §4
structure (smiles),measurement,setting,value
"COc1ccccc1-c1sc2ccc(C3CC3)cc2c1-c1c(O)c(C)nn(C)c1=O [Compound No. 2-160, 4-(5-cyclopropyl-2-(2-methoxyphenyl)benzo[b]thiophen-3-yl)-5-hydroxy-2,6-dimethylpyridazin-3(2H)-one]",herbicidal effect on H: barnyard grass,barnyard grass [1],4 (Herbicidal rate of 70% or more and less than 90%)
same,herbicidal effect on D: Chinese sprangletop,Chinese sprangletop,3 (Herbicidal rate of 40% or more and less than 70%)
same,herbicidal effect on E: rice flat sedge,rice flat sedge,3 (Herbicidal rate of 40% or more and less than 70%)
same,effect on crop b: directly sowed rice,directly sowed rice,0 (Herbicidal rate of 5% or less (almost no effect))
same,"F: southern crabgrass, herbicidal effect rating",southern crabgrass,0 (Herbicidal rate of 5% or less (almost no effect))
same,"G: green foxtail, herbicidal effect rating",green foxtail,0 (Herbicidal rate of 5% or less (almost no effect))
same,"H: barnyard grass, herbicidal effect rating",barnyard grass [2],0 (Herbicidal rate of 5% or less (almost no effect))
same,"I: wild oat, herbicidal effect rating",wild oat,0 (Herbicidal rate of 5% or less (almost no effect))
same,"J: blackgrass, herbicidal effect rating",blackgrass,0 (Herbicidal rate of 5% or less (almost no effect))
same,"K: Italian ryegrass, herbicidal effect rating",Italian ryegrass,0 (Herbicidal rate of 5% or less (almost no effect))
same,"L: windgrass, herbicidal effect rating",windgrass,3 (Herbicidal rate of 40% or more and less than 70%)
same,"M: velvetleaf, herbicidal effect rating",velvetleaf,0 (Herbicidal rate of 5% or less (almost no effect))
same,"N: redroot pigweed, herbicidal effect rating",redroot pigweed,0 (Herbicidal rate of 5% or less (almost no effect))
same,"O: lambsquarters, herbicidal effect rating",lambsquarters,0 (Herbicidal rate of 5% or less (almost no effect))
same,"P: chickweed, herbicidal effect rating",chickweed,1 (Herbicidal rate of 5% or more and less than 20%)
same,"R: persian speedwell, herbicidal effect rating",persian speedwell,1 (Herbicidal rate of 5% or more and less than 20%)
same,"c: corn, effect on crop rating",corn,0 (Herbicidal rate of 5% or less (almost no effect))
same,"d: soybean, effect on crop rating",soybean,0 (Herbicidal rate of 5% or less (almost no effect))
same,"e: wheat, effect on crop rating",wheat,0 (Herbicidal rate of 5% or less (almost no effect))
